Consider two molecules from publication PMC9221371, “Flavonoid Derivatives as Potential Cholinesterase Inhibitors in Scopolamine-Induced Amnesic Mice: An In Vitro, In Vivo and Integrated Computational Approach” (Brain Sciences, 2022).

The test system of assay [1] is scopolamine-induced amnesic mice. The assay can be described thus: Y-Maze Paradigm, spontaneous alternation in scopolamine-induced amnesic model. The format is in vivo, Balb/C mice. Particulars: scopolamine 1 mg/kg i.p., n = 8. An excerpt: For assessment of acute toxicity of the flavones (F1–F5), animals (21 in number) were divided into groups of 3 animals each. The reported protocols by Lorke were followed with slight modification to perform tests in two phases. In the first phase, one (control) group of animals were given Tween-80 (2%), and oral doses of F1–F5 were given to the remaining groups, respectively, at various doses (mg/kg body weight). […] The animals were housed in plastic cages. After two weeks, the animals were sacrificed by euthanasia with isoflurane in a humane manner for assessment of the effects on total weight and weight of the vital organs. The biochemical parameters of blood and histological studies of vital organs (kidney and liver tissue) were also assessed. […] The preliminary pharmacological activity was assessed at various dose concentrations of F1–F5 (2.5–20 mg/kg b.w.) to determine the effective dose for assessment of cognitive function using animal models.
(§1) The animals in the control (normal) and scopolamine amnesic groups were administered vehicle (Tween-80, 2%) only. Treated animals received F1–F5 suspended in Tween-80 (2%) p.o. at their respective doses for a period of 4 weeks. […] For assessing behavioral effects using the Y-Maze Paradigm and novel object discrimination (NOD) task, scopolamine (1 mg/kg, i.p.) was given to the different groups, 30 min after the respective treatments, to induce memory impairment (amnesia) in mice. All of the tests were performed between 8:00 a.m. and 6:00 p.m. to avoid sham results in the performance of the animals.
Behavioral tasks on the Y-Maze Paradigm and “NOD” tasks were conducted in the 5th week of study to determine learning and memory functions. The apparatus arena was cleaned with 70% ethanol during the inter-trial interval to prevent a confounding error due to the influence of odor [20, 21].
The Y-Maze task is a non-invasive and reliable behavioral test that was used for memory assessment of spontaneous alternation for F1–F5 based on previously reported protocols. A single session of Y-Maze was used to record the spontaneous alternation behavior of the animals to determine exploratory behavior and instant memory functioning. The apparatus was made of three arms in a “Y” shape (35 cm × 8 cm × 15 cm) with an equilateral triangular central area. In brief, each of the mice, previously naive to the maze, was placed at the terminal end of one arm. The animals were allowed to move and explore freely for 8 min through the maze. The number of arm entries was noted. One arm entry was considered when the hind paws of the animal were completely placed inside the arm, and the series of arm entries were documented. The spontaneous alternation in percent was calculated.

The test system of assay [2] is brains of scopolamine-induced amnesic mice. The assay can be described thus: Antioxidant enzyme activities and oxidative stress markers in brain homogenate. Conditions: n = 8. The format is in vivo, Balb/C mice. The method, then: as §1
The brain was extracted, and a homogenate (10% w/v) in 0.1 M of phosphate buffer (pH 7.4) was prepared by centrifugation for the assessment of brain oxidative status and estimating brain acetylcholinesterase activity. Catalase (CAT), superoxide dismutase (SOD), glutathione (GSH) and level of lipid peroxidation (malondialdehyde, MDA) were quantified as oxidative stress markers.

Assay [3] addresses T1, BuChE (equine serum lyophilized) (Equus caballus, UniProt P81908).
T1 construct: purchased Sigma-Aldrich (Taufkirchen, Germany); host or cells: equine serum
The assay is described as follows: biochemical. Conditions: triplicate; read-out: BChE IC50 (converted). The method, then: (§2) Synthetic flavonoids F1–F5 previously synthesized by our group were used in the study.
(§3) For the determination of acetylcholinesterase inhibitory potentials, AChE and BuChE were used. […] To the tube were added DTNB (100 µL) and buffer (2.4 mL). The tube was incubated at 25 °C for 5 min as pre-incubation. The reaction was started by adding ATChI (40 µL), and the mixture was incubated at 25 °C for 20 min. The absorbance at 412 nm was measured spectrophotometrically in triplicate. […] The data were recorded in triplicate, and IC50 was calculated.

Assay [4] deals with T2, AChE (electric eel type-VI-S) (Electrophorus electricus, UniProt O42275).
T2 construct: purchased Sigma-Aldrich (Taufkirchen, Germany)
T2 sequence (O42275 24-633): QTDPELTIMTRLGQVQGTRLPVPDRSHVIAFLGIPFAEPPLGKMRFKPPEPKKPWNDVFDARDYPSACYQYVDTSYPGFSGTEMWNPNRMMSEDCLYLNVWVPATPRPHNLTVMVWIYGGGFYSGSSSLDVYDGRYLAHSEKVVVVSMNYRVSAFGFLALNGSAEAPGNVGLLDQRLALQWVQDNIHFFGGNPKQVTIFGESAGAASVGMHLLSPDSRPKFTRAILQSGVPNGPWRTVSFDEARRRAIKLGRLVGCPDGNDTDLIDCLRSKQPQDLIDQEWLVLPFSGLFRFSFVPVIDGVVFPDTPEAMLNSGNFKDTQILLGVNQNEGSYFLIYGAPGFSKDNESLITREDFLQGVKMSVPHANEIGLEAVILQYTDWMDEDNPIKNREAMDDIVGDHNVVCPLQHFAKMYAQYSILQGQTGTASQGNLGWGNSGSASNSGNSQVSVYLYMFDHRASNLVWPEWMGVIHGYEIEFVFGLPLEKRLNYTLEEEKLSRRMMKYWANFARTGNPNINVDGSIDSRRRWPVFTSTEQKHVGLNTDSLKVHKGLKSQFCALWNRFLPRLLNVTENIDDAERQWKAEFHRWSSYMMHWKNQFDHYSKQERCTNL
The assay can be described thus: biochemical. Particulars: 25 °C, triplicate. The method, then: as §2, §3

T1 sequence (P81908 whole entry): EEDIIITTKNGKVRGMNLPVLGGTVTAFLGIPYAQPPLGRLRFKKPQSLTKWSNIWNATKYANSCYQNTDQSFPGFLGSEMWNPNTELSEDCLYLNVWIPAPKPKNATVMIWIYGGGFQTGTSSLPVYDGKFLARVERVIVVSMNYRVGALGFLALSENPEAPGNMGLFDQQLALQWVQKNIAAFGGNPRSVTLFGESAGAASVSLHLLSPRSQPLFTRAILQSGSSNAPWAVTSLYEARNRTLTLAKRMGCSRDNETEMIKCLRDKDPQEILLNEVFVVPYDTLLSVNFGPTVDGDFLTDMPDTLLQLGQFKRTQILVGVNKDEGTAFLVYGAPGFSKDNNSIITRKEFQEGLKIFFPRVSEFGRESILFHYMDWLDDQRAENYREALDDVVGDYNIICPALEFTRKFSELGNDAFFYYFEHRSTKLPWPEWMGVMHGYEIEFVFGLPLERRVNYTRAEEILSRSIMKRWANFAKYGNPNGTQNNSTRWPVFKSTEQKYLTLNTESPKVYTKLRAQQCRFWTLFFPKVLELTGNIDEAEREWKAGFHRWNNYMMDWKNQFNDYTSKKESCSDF

The IC50 is the point on the concentration scale where inhibition reaches its midpoint. On to `O=c1cc(-c2cccc(Cl)c2Cl)oc2ccccc12` [Compound F3], for which, in assay [1] (7.5 mg/kg b.w. p.o. 4 weeks), the “Spontaneous Alternation Performance” value was 59.61 ± 1.61 %. In addition, the “Spontaneous Alternation Performance” value in assay [1] (15 mg/kg b.w. p.o. 4 weeks) stood at 65.78 ± 1.57 %. For the same molecule, in assay [2] (7.5 mg/kg b.w.), the CAT is 22.97 ± 1.71 U/mg of Protein, the GSH is 35.61 ± 1.55 μg/mg of Protein, the MDA was determined as 16.37 ± 1.13 nmol/mg Protein and the SOD was 9.19 ± 1.21 U/mg of Protein. Further, in assay [2] (15 mg/kg b.w.), the CAT is reported as 24.50 ± 1.41 U/mg of Protein, the GSH is reported as 36.98 ± 1.66 μg/mg of Protein, the MDA was 15.94 ± 1.65 nmol/mg Protein and the SOD is reported as 9.41 ± 1.29 U/mg of Protein. The IC50 in assay [3] was 505 µM. The molecule further had an IC50 in assay [4] of 434 µM.

Regarding `O=c1cc(-c2ccc(Cl)c(Cl)c2)oc2ccccc12` [Compound F4], the “Spontaneous Alternation Performance” value in assay [1] (7.5 mg/kg b.w. p.o. 4 weeks) is listed as 57.92 ± 1.41 %; in assay [1] (15 mg/kg b.w. p.o. 4 weeks) it was 66.70 ± 1.63 %. Further, the figures for the CAT in assay [2] (7.5 mg/kg b.w.) and in assay [2] (15 mg/kg b.w.) were 22.21 ± 1.40 U/mg of Protein and 23.39 ± 1.32 U/mg of Protein, respectively. Besides, the GSH in assay [2] (7.5 mg/kg b.w.) is on record as 36.21 ± 1.35 μg/mg of Protein; in assay [2] (15 mg/kg b.w.) it was 38.30 ± 1.40 μg/mg of Protein. Moreover, the values for the MDA in assay [2] (7.5 mg/kg b.w.) and in assay [2] (15 mg/kg b.w.) were 15.74 ± 1.21 nmol/mg Protein and 15.01 ± 1.37 nmol/mg Protein, respectively. For the same molecule, the SOD in assay [2] (7.5 mg/kg b.w.) is on record as 9.30 ± 1.41 U/mg of Protein; in assay [2] (15 mg/kg b.w.) it was 9.71 ± 1.56 U/mg of Protein. In addition, the IC50 is 418 µM in assay [3] and 386 µM in assay [4].
